The text below walks through data of patent US8586098B2, “Loading of hydrophobic drugs into hydrophilic polymer delivery systems” (Biocompatibles UK Limited, priority 2006, dated 2013).

The structures appear in SMILES notation. In brackets after ≈: the same amount, converted by molar mass. Like-named read-outs stand apart in the source and are kept apart here. Some results are limits rather than exact numbers.

Series [1] is described as follows: solubility in water at room temperature. In kind it is physicochemical. To be noted: for Sol^y in water: room temperature. The source says: For these compounds the following table gives comparison water and solvent solubilities at room temperature.
Series [2] can be described thus: solubility in DMSO at room temperature. In kind it is physicochemical. Particulars: for Sol^y in DMSO / Sol^y Ratio: room temperature; for Sol^y Ratio: solubility in solvent (DMSO):solubility in water. The source says: For these compounds the following table gives comparison water and solvent solubilities at room temperature. […]
The conditions of series [3]: background description; cited from earlier work.
For series [4] the following is noted: background description; cited from earlier work. The source holds these as a separate data set.
The conditions of series [5]: benzyl alcohol, chloroform, acetone, acetonitrile; cited from earlier work.

Consider `CC[C@@]1(O)C(=O)OCc2c1cc1n(c2=O)Cc2cc3ccccc3nc2-1` [Camptothecin], for which the “Sol^y in water” value in series [1] is recorded as “insol (insoluble means less than 10 mg/l)”. Also, in series [2], the Sol^y in DMSO stood at 10 g/L and the “Sol^y Ratio” value is reported as >10^3.

The term solubility denotes the concentration that dissolves in the medium under given conditions. For the molecule `C[C@@H]1C[C@H]2[C@@H]3CCC4=CC(=O)C=C[C@]4(C)[C@@]3(F)[C@@H](O)C[C@]2(C)[C@@]1(O)C(=O)CO` [Dexamethasone], the “solubility in water (in words)” value in series [1] (Example 3) was “practically insoluble in water”. Besides, in series [1], the “Sol^y in water” value is reported as “insol (insoluble means less than 10 mg/l)”. The solubility in series [2] (DMSO, organic solvent or mixture, room temp, Example 3) was ~60 mg/mL (≈ 153 mM). In addition, in series [2], the Sol^y in DMSO was determined as 600 g/L and the “Sol^y Ratio” value was >10^5.

For the molecule `CN(Cc1cnc2nc(N)nc(N)c2n1)c1ccc(C(=O)N[C@@H](CCC(=O)O)C(=O)O)cc1` [Methotrexate], the “Sol^y in water” value in series [1] is listed as “insol (insoluble means less than 10 mg/l)”. Further, in series [2], the Sol^y in DMSO is 200 g/L and the “Sol^y Ratio” value is on record as >5 × 10^4.

In the case of `CC(=O)O[C@H]1C(=O)[C@@]2(C)[C@H]([C@H](OC(=O)c3ccccc3)[C@]3(O)C[C@H](OC(=O)[C@H](O)[C@@H](NC(=O)c4ccccc4)c4ccccc4)C(C)=C1C3(C)C)[C@]1(OC(C)=O)CO[C@@H]1C[C@@H]2O` [Paclitaxel, 5β,20-Epoxy-1,2α,4,7β,10β,13α-hexahydroxytax-11-en-9-one 4,10-diacetate-2-benzoate 13-ester with (2R,3S)—N-benzoyl-3-phenylisoserine], the “Sol^y in water” value in series [1] was 0.3 to 30 mg/L. The Sol^y in DMSO in series [2] is 50 g/L. Besides, the “solubility in water (in words)” value in series [3] was “insoluble in water”. In addition, the “lipophilicity (in words)” value in series [4] is “highly lipophilic”.

`CO[C@H]1C[C@@H]2CC[C@@H](C)[C@@](O)(O2)C(=O)C(=O)N2CCCC[C@H]2C(=O)O[C@H]([C@H](C)C[C@@H]2CC[C@@H](O)[C@H](OC)C2)CC(=O)[C@H](C)/C=C(\C)[C@@H](O)[C@@H](OC)C(=O)[C@H](C)C[C@H](C)/C=C/C=C/C=C/1C` [Rapamycin]: the “Sol^y in water” value in series [1] was 0.69 mg/L. In series [2], the Sol^y in DMSO stood at 25 g/L and the “Sol^y Ratio” value was >4 × 10^4. Besides, the “solubility in water (in words)” value in series [3] is on record as “insoluble in water”. In series [5], the “solubility in organic solvents (in words)” value is “freely soluble in benzyl alcohol, chloroform, acetone, and acetonitrile”.
